Measurements taken from ChEMBL document CHEMBL3045993, “Expedient synthesis of some novel pregnane derivatives and their evaluation as anti-oxidant and anti-dyslipidemic agents” (2011).

Legend:
Assay type in all cases: functional
[1] = Antioxidant activity assessed as inhibition of hydroxy radical generation at 100 ug/ml after 90 min by thiobarbuteric acid method
Rattus norvegicus [2] = experiment: Antidyslipidemic activity in Rattus norvegicus Charles Foster (rat) assessed as activation of post heparin lipolytic activity at 400 mg/kg, po after 18 hr relative to control
Liver microsome = experiment: Antioxidant activity in Rattus norvegicus (rat) liver microsomes assessed as inhibition of lipid peroxidation at 100 ug/ml after 90 min by thiobarbuteric acid method
Rattus norvegicus [3] = experiment: Antidyslipidemic activity in high fat diet fed Rattus norvegicus Charles Foster (rat) assessed as activation of liver phopholipase at 100 mg/kg, po administered QD for 30 days relative to control
Rattus norvegicus [4] = experiment: Antidyslipidemic activity in high fat diet fed Rattus norvegicus Charles Foster (rat) assessed as activation of cholesterol acyltransferase in plasma at 100 mg/kg, po administered QD for 30 days relative to control
Rattus norvegicus [5] = experiment: Antidyslipidemic activity in high fat diet fed Rattus norvegicus Charles Foster (rat) assessed as inhibition of cholesterol-induced phospholipid level in plasma at 100 mg/kg, po administered QD for 30 days relative to control; conditions: 720 h
[6] = Antioxidant activity assessed as inhibition of xanthine oxidase-mediated superoxide anion release at 100 ug/ml after 30 min relative to control
Rattus norvegicus [7] = experiment: Antidyslipidemic activity in Rattus norvegicus Charles Foster (rat) assessed as activation of post heparin lipolytic activity at 100 mg/kg, po after 18 hr relative to control
Rattus norvegicus [8] = experiment: Antidyslipidemic activity in Rattus norvegicus Charles Foster (rat) assessed as inhibition of triton WR1339-induced phospholipid in plasma at 100 mg/kg, po after 18 hr relative to control
Rattus norvegicus [9] = experiment: Antidyslipidemic activity in Rattus norvegicus Charles Foster (rat) assessed as inhibition of triton WR1339-induced triglyceride in plasma at 100 mg/kg, po after 18 hr relative to control
Rattus norvegicus [10] = experiment: Antidyslipidemic activity in Rattus norvegicus Charles Foster (rat) assessed as inhibition of triton WR1339-induced total cholesterol in plasma at 100 mg/kg, po after 18 hr relative to control; conditions: read-out: INH

SMILES	Activity (Rattus norvegicus [2]) [%]	Activity (Rattus norvegicus [3]) [%]	Activity (Rattus norvegicus [4]) [%]	inhibition in vivo at 100 mg/kg (Rattus norvegicus [5]) [%]	also measured
CC(=O)OC(C)CO[C@@H]1C[C@H]2[C@@H]3CC=C4C[C@@H](OC(C)=O)CC[C@]4(C)[C@H]3CC[C@]2(C)[C@H]1C(C)=O (stereo partly drawn) [3BETA-ACETOXY-16ALPHA-(2-ACETOXY PROPOXY)-PREGN-5-EN-20-ONE]	13	–	–	–	inhibition [1]: -9%
CC(=O)[C@H]1[C@H](Nc2ccc(Cl)cc2)C[C@H]2[C@@H]3CC=C4C[C@@H](O)CC[C@]4(C)[C@H]3CC[C@@]21C [3BETA-HYDROXY-16ALPHA-(4-CHLORO PHENYLAMINO)-PREGN-5-EN-20-ONE]	31	18	23	-25	inhibition (Liver microsome): -8%
COCCO[C@@H]1C[C@H]2[C@@H]3CC=C4C[C@@H](OC(C)=O)CC[C@]4(C)[C@H]3CC[C@]2(C)[C@H]1C(C)=O [3BETA-ACETOXY-16ALPHA-(2-METHOXY ETHOXY)-PREGN-5-EN-20-ONE]	18	–	–	–	–
COCCO[C@@H]1C[C@H]2[C@@H]3CC=C4C[C@@H](O)CC[C@]4(C)[C@H]3CC[C@]2(C)[C@H]1C(C)=O [3BETA-HYDROXY-16ALPHAA-(2-METHOXYETHOXY)PREGN-5-EN-20-ONE]	18	–	–	–	–
CC(=O)[C@@]1(O)[C@H](OCCO)C[C@H]2[C@@H]3CC=C4C[C@@H](O)CC[C@]4(C)[C@H]3CC[C@@]21C [3BETA,17ALPHA-DIHYDROXY-16ALPHA-(2-HYDROXY ETHOXY)PREGN-5-EN-20-ONE]	21	–	–	–	–
C/C(=N\OC(C)C)C1=CC[C@H]2[C@@H]3CC=C4C[C@@H](O)CC[C@]4(C)[C@H]3CC[C@]12C	23	–	–	–	inhibition [6]: -9%
CC(=O)[C@H]1[C@H](OCCOCCO)C[C@H]2[C@@H]3CC=C4C[C@@H](O)CC[C@]4(C)[C@H]3CC[C@@]21C [3BETA-HYDROXY-16ALPHA-[2(2-HYDROXY ETHOXY)-ETHOXY]PREGN-5-EN-20-ONE]	17	–	–	–	–
C[C@H](O)[C@H]1[C@H](OCCOCCO)C[C@H]2[C@@H]3CC=C4C[C@@H](O)CC[C@]4(C)[C@H]3CC[C@]12C [3BETA,20BETA-DIHYDROXY-16ALPHA-[2(2-HYDROXYETHOXY)-ETHOXY]-PREGN-5-EN]	17	–	–	–	–
CC(=O)[C@H]1[C@H](c2cc(F)ccc2N)C[C@H]2[C@@H]3CC=C4C[C@@H](O)CC[C@]4(C)[C@H]3CC[C@@]21C [3BETA-HYDROXY-16ALPHA-(2-AMINO-5-FLUORO-PHENYL)-PREGN-5-EN-20-ONE]	24	27	28	-21	–
Cc1ccc(C)c(OCCCC(C)(C)C(=O)O)c1 [GEMFIBROZIL]	–	33	31	-31	Activity (Rattus norvegicus [7]): 32%; inhibition in vivo at 100 mg/kg (Rattus norvegicus [8]): -34%; inhibition in vivo at 100 mg/kg (Rattus norvegicus [9]): 36%; inhibition in vivo at 100 mg/kg (Rattus norvegicus [10]): 36%
COCCO[C@@H]1C[C@H]2[C@@H]3CC=C4C[C@@H](O)CC[C@]4(C)[C@H]3CC[C@]2(C)[C@H]1[C@H](C)O [3BETA,20BETA-DIHYDROXY-16ALPHA-(2-METHOXY ETHOXY)-PREGN-5-EN]	17	–	–	–	inhibition (Liver microsome): -10%
CC(=O)OCCOCCO[C@@H]1C[C@H]2[C@@H]3CC=C4C[C@@H](OC(C)=O)CC[C@]4(C)[C@H]3CC[C@]2(C)[C@H]1C(C)=O [3BETA-ACETOXY-16ALPHA-[2(2-ACETOXY ETHOXY)-ETHOXY]-PREGN-5-EN-20-ONE]	23	15	20	-22	–
CC(=O)[C@H]1[C@H](OCC(C)O)C[C@H]2[C@@H]3CC=C4C[C@@H](O)CC[C@]4(C)[C@H]3CC[C@@]21C (stereo partly drawn) [3BETA-HYDROXY-16ALPHA-(2-HYDROXY PROPOXY)PREGN-5-EN-20-ONE]	21	–	–	–	–
